Source: article PMC8225628, “Bispecific repurposed medicines targeting the viral and immunological arms of COVID-19” (Scientific Reports, 2021)
Values joined by “and” are separate entries in the source; they are usually repeats but may differ in a detail not shown here. Equal entries are not always repeated. Where two headings read alike, the source gives them in different places.

Experiments:
SARS-CoV-2 M^pro = SARS-CoV-2 M^pro (Severe acute respiratory syndrome coronavirus 2, UniProt P0DTD1); assay: biochemical; details: for inhibition at 10 µM: read-out: M^pro % inhibition at 10 µM
SARS-CoV-2 PL^pro = SARS-CoV-2 PL^pro (Severe acute respiratory syndrome coronavirus 2, UniProt P0DTD1); assay: biochemical; details: for inhibition at 10 µM: read-out: PL^pro % inhibition at 10 µM
PL^pro = test system: PL^pro; parameters: method as in PMID 32726803; details: read-out: Biochemical IC50; cited from earlier work
[1] = parameters: method as in PMID 32726803; details: cited from earlier work
[2] = parameters: method as in PMID 32726803; details: read-out: FFU IC50; cited from earlier work
[3] = parameters: method as in PMID 32726803; details: cited from earlier work; remark: listed apart in the source
M^pro = M^pro (Severe acute respiratory syndrome coronavirus 2, UniProt P0DTD1); assay: M^pro SPR assay; type: binding
SARS-CoV-2 = assay: Antiviral assay, inhibition of SARS-CoV-2 cytopathic effect in HUH7_mCherry cells; details: HUH7 cells, at 10 µM, dose refreshed daily
HUH7 cells = details: human, 4 days
[4] = ReFRAME hits, >5e-6 = not potent enough to determine an IC50, read-out: M^pro IC50
[5] = ReFRAME hits, >5e-6 = not potent enough to determine an IC50, read-out: PL^pro IC50

O=C(NC1CC1)C(=O)C(Cc1ccccc1)NC(=O)C1CCC(=O)N1Cc1ccccc1 (centres unmarked) [Compound 2, ABT-957, reference compound]
IC50 (SARS-CoV-2 M^pro; [4]): > 5 µM | IC50 (SARS-CoV-2 M^pro; read-out: IC50 against M^pro): > 100 µM | inhibition at 10 µM (SARS-CoV-2 M^pro; ReFRAME hits): 73% | inhibition at 10 µM (SARS-CoV-2 PL^pro; ReFRAME hits, 10 µM): 17% | IC50 (SARS-CoV-2 PL^pro; read-out: PL^pro IC50): > 5 µM

O=c1cc(-c2ccc(O)c(-c3c(O)cc(O)c4c(=O)cc(-c5ccc(O)cc5)oc34)c2)oc2cc(O)cc(O)c12 [amentoflavone]
inhibition at 10 µM (SARS-CoV-2 M^pro; ReFRAME hits): 34% | inhibition at 10 µM (SARS-CoV-2 PL^pro; ReFRAME hits, 10 µM): 4% | IC50 (SARS-CoV-2 PL^pro; read-out: PL^pro IC50): > 5 µM

O=C(O)c1cccc(C[C@@H]2COc3ccc(OCc4nc5cc(F)ccc5s4)cc3[C@@H]2O)c1 [(+)-CP-85958]
M^pro % inhibition at 10 µM (SARS-CoV-2 M^pro; ReFRAME hits): 70% | IC50 (SARS-CoV-2 M^pro; [4]): 2 µM | PL^pro % inhibition at 10 µM (SARS-CoV-2 PL^pro; ReFRAME hits, 10 µM): 17% | IC50 (SARS-CoV-2 PL^pro; [5]): > 5 µM

O=C(N/N=C/c1ccc([N+](=O)[O-])o1)c1cc([N+](=O)[O-])cc([N+](=O)[O-])c1O [nifursol]
inhibition at 10 µM (SARS-CoV-2 M^pro; ReFRAME hits): 43% | inhibition at 10 µM (SARS-CoV-2 PL^pro; ReFRAME hits, 10 µM): 23% | IC50 (SARS-CoV-2 PL^pro; read-out: PL^pro IC50): > 5 µM

Cc1cccnc1NS(=O)(=O)c1ccc(C#Cc2ccc(O)c(C(=O)O)c2)cc1 [susalimod]
inhibition at 10 µM (SARS-CoV-2 M^pro; ReFRAME hits): 31% | IC50 (SARS-CoV-2 M^pro; read-out: M^pro IC50): > 5 µM | inhibition at 10 µM (SARS-CoV-2 PL^pro; ReFRAME hits, 10 µM): 22% | IC50 (SARS-CoV-2 PL^pro; read-out: PL^pro IC50): > 5 µM

CN(C)C/C=C/C(=O)Nc1cc2c(Nc3ccc(F)c(Cl)c3)ncnc2cc1O[C@H]1CCOC1 [Compound 11, Afatinib, reference compound]
IC50 (SARS-CoV-2 PL^pro; SARS-CoV-2 PL^pro, range in brackets, read-out: IC50 (µM) (range)): 12 µM

Nc1nc(N)nc(Nc2ccc([As]3SC(C(=O)O)C(C(=O)O)S3)cc2)n1 (centres unmarked) [MELARSONYL]
PL^pro % inhibition at 10 µM (SARS-CoV-2 PL^pro): 11% | IC50 (SARS-CoV-2 PL^pro; read-out: PL^pro IC50): > 5 µM

Cc1ccc(N)cc1C(=O)N[C@H](C)c1cccc2ccccc12 [GRL-0617]
IC50 (PL^pro): […] | Cytopathic-effect potency [1]: 30 µM | IC50 [2]: > 100 µM | Viral RNA detection potency [3]: > 50 µM

O=C1OC2(c3ccccc31)c1cc(I)c(O)c(I)c1Oc1c2cc(I)c(O)c1I [erythrosine]
inhibition at 10 µM (SARS-CoV-2 M^pro; ReFRAME hits): 58% | IC50 (SARS-CoV-2 PL^pro): > 5 µM | inhibition at 10 µM (SARS-CoV-2 PL^pro; ReFRAME hits, 10 µM): 20%

CO[C@H]1O[C@H](COS(=O)(=O)[O-])[C@@H](O[C@@H]2O[C@@H](C(=O)[O-])[C@@H](O[C@H]3O[C@H](COS(=O)(=O)[O-])[C@@H](O[C@@H]4O[C@H](C(=O)[O-])[C@@H](O[C@H]5O[C@H](COS(=O)(=O)[O-])[C@@H](O)[C@H](O)[C@H]5NS(=O)(=O)[O-])[C@H](O)[C@H]4O)[C@H](OS(=O)(=O)[O-])[C@H]3NS(=O)(=O)[O-])[C@H](O)[C@H]2OS(=O)(=O)[O-])[C@H](O)[C@H]1NS(=O)(=O)[O-].[Na+].[Na+].[Na+].[Na+].[Na+].[Na+].[Na+].[Na+].[Na+].[Na+] [fondaparinux (sodium), reference compound]
M^pro % inhibition at 10 µM (SARS-CoV-2 M^pro; ReFRAME hits): 80% | IC50 (SARS-CoV-2 M^pro; [4]): 2 µM | PL^pro % inhibition at 10 µM (SARS-CoV-2 PL^pro; ReFRAME hits, 10 µM): 23% | IC50 (SARS-CoV-2 PL^pro; [5]): > 5 µM

CN1CCCN=C1/C=C/c1cccs1 [Pyrantel pamoate, reference compound]
IC50 (SARS-CoV-2 PL^pro): > 5 µM

teicoplanin [reference compound]
PL^pro % inhibition at 10 µM (SARS-CoV-2 PL^pro; ReFRAME hits, 10 µM): 88% and 81%

CN1CCCN=C1/C=C/c1cccc(O)c1.O=C(O)c1cc2ccccc2c(Cc2c(O)c(C(=O)O)cc3ccccc23)c1O [oxantel (pamoate), reference compound]
PL^pro % inhibition at 10 µM (SARS-CoV-2 PL^pro; ReFRAME hits, 10 µM): 11%

CC(=O)[O][Hg][c]1cc(C(C)(C)CC(C)(C)C)ccc1O [acetomeroctol]
PL^pro % inhibition at 10 µM (SARS-CoV-2 PL^pro): 7% | IC50 (SARS-CoV-2 PL^pro; read-out: PL^pro IC50): > 5 µM

CN1CCCN=C1/C=C/c1cccc(O)c1 [oxantel (pamoate), reference compound]
IC50 (SARS-CoV-2 PL^pro; [5]): > 5 µM

CCOC(=O)C[C@H](NC(=O)[C@H](C)NC(=O)[C@@H](NC(=O)OCc1ccccc1)C(C)C)C(=O)COC(=O)c1c(Cl)cccc1Cl [Compound 4, Ethyl (5S,8S,11S)-11-(2-((2,6-dichlorobenzoyl)oxy)acetyl)-5-isopropyl-8-methyl-3,6,9-trioxo-1-phenyl-2-oxa-4,7,10-triazatridecan-13-oate, reference compound]
Binding to M^pro in SPR (in words) (M^pro): confirmed to bind | Binding to M^pro in SPR (in words) (M^pro; in the presence of slow off-rate inhibitor N3): no binding observed | IC50 (SARS-CoV-2 M^pro; 30 nM is the biochemical limit of the assay, read-out: IC50 against M^pro): 0.03 µM | inhibition at 10 µM (SARS-CoV-2 M^pro; ReFRAME hits): 95% | Antiviral effect (SARS-CoV-2): 50% | inhibition at 10 µM (SARS-CoV-2 PL^pro; ReFRAME hits, 10 µM): 19% | IC50 (SARS-CoV-2 PL^pro; read-out: PL^pro IC50): > 5 µM | Concentration up to which non-cytotoxic (HUH7 cells): ≤ 10 µM
